Data taken from paper PMC6152727, “Potential of Icariin Metabolites from Epimedium koreanum Nakai as Antidiabetic Therapeutic Agents” (Molecules : A Journal of Synthetic Chemistry and Natural …, 2017).

Columns and labels:
Type in all cases: biochemical
[1] = molecular target: yeast α-glucosidase; test: α-Glucosidase activity assay (pNPG substrate); conditions: for IC50: mean ± SEM of triplicate experiments, final concentration 20 to 300 μM
Protocol: α-Glucosidase enzymatic activity was assayed spectrophotometrically as described previously. Briefly, 60 μL of reaction mixture containing 20 μL of 100 mM phosphate buffer (pH 6.8), 20 μL of 2.5 mM pNPG, and 20 μL of sample (final concentration ranging from 20 to 300 μM, dissolved in 10% DMSO) was added to each well. After incubation at 37 °C for 5 min in the dark, 20 μL of yeast α-glucosidase (0.2 U/mL) in 10 mM phosphate buffer (pH 6.8) was added. The plate was then incubated at 37 °C for 15 min in the dark, after which the reaction was stopped by the addition of 80 μL of 0.2 M sodium carbonate solution. The absorbance was immediately recorded at 405 nm using a microplate spectrophotometer (Molecular Devices). The control consisted of the same reaction mixture but with the sample solution replaced by an equivalent volume of phosphate buffer. […] The inhibition percentage (%) was obtained using the same equation as in the PTP1B enzymatic assay.

[2] = molecular target: T1, human recombinant PTP1B (Homo sapiens, UniProt P18031); test: PTP1B activity assay (pNPP substrate); conditions: mean ± SEM of triplicate experiments
T1 construct: purchased Biomol International LP (Plymouth Meeting, PA, USA)
T1 sequence (P18031 1-435): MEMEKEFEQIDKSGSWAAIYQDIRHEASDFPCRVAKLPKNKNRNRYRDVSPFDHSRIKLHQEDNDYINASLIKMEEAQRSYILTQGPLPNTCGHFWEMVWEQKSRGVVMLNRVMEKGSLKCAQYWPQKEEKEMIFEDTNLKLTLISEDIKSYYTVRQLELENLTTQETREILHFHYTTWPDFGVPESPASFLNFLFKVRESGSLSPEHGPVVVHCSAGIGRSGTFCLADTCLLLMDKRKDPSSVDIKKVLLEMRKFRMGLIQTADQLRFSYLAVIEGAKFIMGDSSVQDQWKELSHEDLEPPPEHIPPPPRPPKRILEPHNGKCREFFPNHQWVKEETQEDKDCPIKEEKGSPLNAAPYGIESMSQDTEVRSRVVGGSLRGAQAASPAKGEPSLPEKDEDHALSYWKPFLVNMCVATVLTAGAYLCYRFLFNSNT
Protocol: The abilities of the aerial parts of E. koreanum and their constituents to inhibit human recombinant PTP1B activity were evaluated using pNPP as a substrate. […] After incubation at 37 °C for 20 min in the dark, the reaction was terminated by addition of 10 M NaOH. The amount of p-nitrophenylate produced by enzymatic dephosphorylation of pNPP was determined by measuring the absorbance at 405 nm using a microplate spectrophotometer (Molecular Devices). Non-enzymatic dephosphorylation of pNPP was corrected by measuring the increase in absorbance at 405 nm obtained in the absence of PTP1B. […] The percent inhibition was calculated as {(AC − AS)/AC} × 100, where AC is the absorbance of the control, and AS is the absorbance of the sample. The IC50 is expressed as the mean ± SEM of triplicate experiments.

[3] = molecular target: T1, human recombinant PTP1B; test: Enzyme kinetics analysis of PTP1B (Lineweaver–Burk and Dixon plots); conditions: for PTP1B Inhibition Type: determined by the Lineweaver–Burk plot
Protocol: The inhibition type and inhibition constant (Ki) of the two compounds were determined using Lineweaver–Burk and Dixon plots. Each line of the inhibitors penetrate the same point at the x-intercept, indicating noncompetitive-type inhibition, and the x-axis represent-Kiwhen 1/V = 0. […] The Dixon plot is an established method for determining the enzyme inhibition type and the Ki value for an enzyme-inhibitor complex, where the value of the x-axis indicates Ki.
In order to determine the inhibition mechanism, two complementary kinetics methods were used: Lineweaver–Burk and Dixon plots. The level of enzymatic inhibition at various concentrations of test sample was evaluated by monitoring the effect of different substrate concentrations in Dixon plots (single reciprocal plots). Dixon plots for PTP1B inhibition were obtained in the presence of different concentrations of pNPP. Using Lineweaver–Burk plots (double reciprocal plots), the inhibition modes of the compounds were determined at various concentrations of pNPP with different concentrations of compounds. The enzymatic procedures were the same as for the PTP1B assay methods. The types of inhibition were investigated by interpreting the Dixon plots, in which the value of the x-axis indicates Ki.

Molecule	IC50 [1] [µM]	IC50 [2] [µM]	Ki ([3]; determined by the Dixon plot) [µM]	α-glucosidase inhibition (in words) ([1]; at any of the tested concentrations)	PTP1B Inhibition Type [3]
COc1ccc(-c2oc3c(CC=C(C)C)c(O)cc(O)c3c(=O)c2O)cc1 [Icaritin, icaritin]	74.42 ± 0.01	11.6 ± 1.39	11.4		Non-competitive
icariside II	106.6 ± 0.44				Non-competitive

More lines, main results first:

IC50 [1] [µM]	IC50 [2] [µM]	Ki ([3]; determined by the Dixon plot) [µM]	Molecule	α-glucosidase inhibition (in words) ([1]; at any of the tested concentrations)	PTP1B Inhibition Type [3]
444.1 ± 3.8	> 300		COc1ccc(-c2oc3c(CC=C(C)C)c(OC4OC(CO)C(O)C(O)C4O)cc(O)c3c(=O)c2OC2OC(C)C(O)C(O)C2OC2OC(CO)C(O)C(O)C2O)cc1 (centres unmarked) [Epimedin A, epimedin A]		
452 ± 5.36	> 300		COc1ccc(-c2oc3c(CC=C(C)C)c(O[C@@H]4O[C@H](CO)[C@@H](O)[C@H](O)[C@H]4O)cc(O)c3c(=O)c2O[C@@H]2O[C@@H](C)[C@H](O)[C@@H](O)[C@H]2O[C@@H]2OC[C@@H](O)[C@H](O)[C@H]2O)cc1 [Epimedin B, epimedin B]		
403.9 ± 1.53	> 300		COc1ccc(-c2oc3c(CC=C(C)C)c(O[C@@H]4O[C@H](CO)[C@@H](O)[C@H](O)[C@H]4O)cc(O)c3c(=O)c2O[C@@H]2O[C@@H](C)[C@H](O)[C@@H](O)[C@H]2O[C@@H]2O[C@@H](C)[C@H](O)[C@@H](O)[C@H]2O)cc1 [Epimedin C, epimedin C]		
	> 300		COc1ccc(-c2oc3c(CC=C(C)C)c(O[C@@H]4O[C@H](CO)[C@@H](O)[C@H](O)[C@H]4O)cc(O)c3c(=O)c2O[C@@H]2O[C@@H](C)[C@H](O)[C@@H](O)[C@H]2O)cc1 [Icariin, icariin]	did not inhibit α-glucosidase activity at any of the tested concentrations	
